Here are results for six compounds from patent publication US20160318987A1 (MEDIMMUNE LIMITED, priority 2013, published 2016).

Where a SMILES comes first, the peptide text is derived from it. [ ]: non-standard residue; d: D form. The star is where a group is joined. Palmitoyl = CCCCCCCCCCCCCCCC(=O)*; αMeF = C[C@](N)(Cc1ccccc1)C(=O)O; αMeK = C[C@](N)(CCCCN)C(=O)O; Aib = CC(C)(N)C(=O)O

Format in all cases: cell-based
Holding throughout (conditions): n = 2

The target of one experiment is T1, hGluc-R (Homo sapiens, UniProt P47871).
T1 construct: expressed in transfected cells
T1 sequence (P47871 26-477): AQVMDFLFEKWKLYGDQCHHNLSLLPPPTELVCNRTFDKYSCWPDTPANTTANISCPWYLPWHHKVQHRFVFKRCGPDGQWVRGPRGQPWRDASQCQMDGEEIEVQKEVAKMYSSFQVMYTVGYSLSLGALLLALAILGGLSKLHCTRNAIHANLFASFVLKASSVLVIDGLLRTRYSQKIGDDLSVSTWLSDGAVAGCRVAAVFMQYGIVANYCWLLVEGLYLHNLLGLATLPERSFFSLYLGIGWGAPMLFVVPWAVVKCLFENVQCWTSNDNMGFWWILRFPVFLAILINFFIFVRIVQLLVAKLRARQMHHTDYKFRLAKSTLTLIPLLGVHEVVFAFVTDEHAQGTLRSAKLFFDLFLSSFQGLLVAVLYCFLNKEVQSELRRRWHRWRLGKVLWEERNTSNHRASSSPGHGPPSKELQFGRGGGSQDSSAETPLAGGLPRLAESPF
The experiment can be described thus: cAMP functional assay, cells expressing human glucagon receptor (primary assay). As to the method:
The biological activities/receptor potencies of the synthetic GLP-1 peptides described herein are suitably tested for biological activity, e.g., stimulation of one or more cellular receptor responses. Stable cell lines expressing human, mouse, rat, or dog GLP-1 receptor (GLP-1R), glucagon receptor (GCGR) or glucose-dependent insulinotropic peptide (gastric inhibitory polypeptide) receptor (GIPR) are generated in HEK293 cells or CHO cells by standard methods.
cAMP assays were performed using “assay buffer”: Assay Buffer: 0.1% BSA (Sigma #A3059) in HBSS (Sigma #H8264) with 25 mM HEPES, pH 7.4 and containing 0.5 mM IBMX (Sigma #17018).
Low protein binding 384-well plates (Greiner #781280) are used to perform eleven 1 in 5 serial dilutions of test samples which are made in assay buffer. All sample dilutions are made in duplicate.
A frozen cryo-vial of cells expressing the receptor of interest is thawed rapidly in a water-bath, transferred to pre-warmed assay buffer and spun at 240× g for 5 minutes. Cells are re-suspended in assay buffer at a batch-dependent optimized concentration (e.g. hGCGR cells at 2×10^5 cells/ml, hGLP-1R and hGIPR cells at 1×10^5 cells /ml).
From the dilution plate, a 5 μL replica is stamped onto a black shallow-well u-bottom 384-well plate (Corning #3676). To this, 5 μL cell suspension is added and the plates incubated at room temperature for 30 minutes.
cAMP levels are measured using a commercially available cAMP dynamic 2 HTRF kit (Cisbio, Cat #62AM4PEJ), following the two step protocol as per manufacturer's recommendations. In brief; anti-cAMP cryptate (donor fluorophore) and cAMP-d2 (acceptor fluorophore) are made up separately by diluting each 1/20 in conjugate & lysis buffer provided in the kit. 5 μL anti-cAMP cryptate is added to all wells of the assay plate, and 5 μL cAMP-d2 is added to all wells except non-specific binding (NSB) wells, to which conjugate and lysis buffer are added. Plates are incubated at room temperature for one hour and then read on an Envision (Perkin Elmer) using excitation wavelength of 320 nm and emission wavelengths of 620 nm & 665 nm. EC50 values of the synthetic peptides determined in cAMP assays are then determined.

The next experiment concerns the target T2, hGLP-1R (Homo sapiens, UniProt P43220).
T2 construct: expressed in transfected cells
The experiment can be described thus: cAMP functional assay, cells expressing human GLP-1 receptor (primary assay).

The next experiment has as its target T3, hGIP-R (Homo sapiens, UniProt P48546).
T3 construct: expressed in transfected cells
T3 sequence (P48546 22-466): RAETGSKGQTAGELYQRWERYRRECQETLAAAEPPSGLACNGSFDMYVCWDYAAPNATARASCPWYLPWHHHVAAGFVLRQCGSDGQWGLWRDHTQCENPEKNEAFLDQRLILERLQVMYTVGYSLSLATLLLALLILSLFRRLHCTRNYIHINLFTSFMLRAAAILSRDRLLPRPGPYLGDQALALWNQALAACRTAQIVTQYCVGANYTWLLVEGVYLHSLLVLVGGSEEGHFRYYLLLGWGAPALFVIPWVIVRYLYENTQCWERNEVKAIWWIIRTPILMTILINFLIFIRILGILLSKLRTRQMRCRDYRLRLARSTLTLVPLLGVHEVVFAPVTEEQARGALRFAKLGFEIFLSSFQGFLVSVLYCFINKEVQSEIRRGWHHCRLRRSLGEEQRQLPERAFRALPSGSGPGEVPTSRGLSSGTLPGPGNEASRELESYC
As to the kind of experiment: cAMP functional assay, cells expressing human GIP receptor (primary assay).

T2 sequence (P43220 24-463): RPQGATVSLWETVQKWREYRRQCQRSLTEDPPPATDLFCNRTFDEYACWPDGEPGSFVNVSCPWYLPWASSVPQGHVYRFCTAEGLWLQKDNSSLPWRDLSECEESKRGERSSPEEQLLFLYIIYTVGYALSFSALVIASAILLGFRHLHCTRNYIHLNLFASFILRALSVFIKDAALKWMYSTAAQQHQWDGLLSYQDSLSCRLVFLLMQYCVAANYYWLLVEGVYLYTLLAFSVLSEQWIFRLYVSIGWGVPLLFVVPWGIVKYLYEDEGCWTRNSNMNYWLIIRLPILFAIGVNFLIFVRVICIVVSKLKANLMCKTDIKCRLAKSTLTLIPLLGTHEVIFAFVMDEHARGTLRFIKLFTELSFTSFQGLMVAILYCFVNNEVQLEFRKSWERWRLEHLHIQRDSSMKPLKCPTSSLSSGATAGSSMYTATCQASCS

For orientation: EC50 means the concentration needed to bring the measured effect to its halfway point. As for `CCCCCCCCCCCCCCCC(=O)NCCCC[C@H](NC(=O)CNC(=O)CNC(=O)[C@](C)(CCCCN)NC(=O)[C@@H](NC(=O)[C@H](CC(C)C)NC(=O)[C@](C)(Cc1ccccc1)NC(=O)[C@H](C)NC(=O)[C@@H](NC(=O)[C@](C)(Cc1ccccc1)NC(=O)[C@H](CCC(=O)O)NC(=O)[C@](C)(CCCCN)NC(=O)[C@H](C)NC(=O)[C@H](C)NC(=O)[C@H](CCC(N)=O)NC(=O)CNC(=O)[C@H](CCC(=O)O)NC(=O)[C@H](CC(C)C)NC(=O)[C@](C)(Cc1ccccc1)NC(=O)[C@H](CO)NC(=O)[C@H](CO)NC(=O)[C@@H](NC(=O)[C@H](CC(=O)O)NC(=O)[C@H](CO)NC(=O)[C@@H](NC(=O)[C@](C)(Cc1ccccc1)NC(=O)[C@H](CO)NC(=O)CNC(=O)[C@H](CCC(=O)O)NC(=O)C(C)(C)NC(=O)[C@@H](N)Cc1c[nH]cn1)[C@@H](C)O)C(C)C)[C@@H](C)CC)C(C)C)C(N)=O` [SEQ ID NO: 47, H-(Aib)^2-EG-(S)^5-(α-MeF)^6-TSDV^10 SS-(α-MeF)^13-LE^15 GQAA-(α-MeK)^20 E-(α-MeF)^22-IA-(α-MeF)^25 LV-(α-MeK)^28-G-(G)^30-K(Ε-Palm)] (H-H[Aib]EGS[αMeF]TSDVSS[αMeF]LEGQAA[αMeK]E[αMeF]IA[αMeF]LV[αMeK]GGK(Palmitoyl)-NH2), the EC50 was found to be 92.7 nM on hGluc-R, 0.105 nM at hGLP-1R and 92.7 nM at hGIP-R.
`CC[C@H](C)[C@H](NC(=O)[C@H](Cc1ccccc1)NC(=O)[C@H](CCC(=O)O)NC(=O)[C@H](CCCCN)NC(=O)[C@H](C)NC(=O)[C@H](C)NC(=O)[C@H](CCC(N)=O)NC(=O)CNC(=O)[C@H](CCC(=O)O)NC(=O)[C@H](CC(C)C)NC(=O)[C@H](Cc1ccc(O)cc1)NC(=O)[C@H](CO)NC(=O)[C@H](CO)NC(=O)[C@@H](NC(=O)[C@H](CC(=O)O)NC(=O)[C@H](CO)NC(=O)[C@@H](NC(=O)[C@H](Cc1ccccc1)NC(=O)[C@@H](NC(=O)CNC(=O)[C@H](CCC(=O)O)NC(=O)C(C)(C)NC(=O)[C@@H](N)Cc1c[nH]cn1)[C@@H](C)O)[C@@H](C)O)C(C)C)C(=O)N[C@@H](C)C(=O)N[C@@H](Cc1c[nH]c2ccccc12)C(=O)N[C@@H](CC(C)C)C(=O)N[C@H](C(=O)N[C@@H](CCCCN)C(=O)NCC(=O)NC(C)(C)C(N)=O)C(C)C` [SEQ ID NO: 25, H-(Aib)^2-EGT^5 FTSDV^10 SSYLE^15 GQAAK^20 EFIAW^25 LVKG-(Aib)^30]: the EC50 turned out to be 96.4 nM on hGluc-R, 0.0277 nM on hGLP-1R and 96.4 nM on hGIP-R.
Turning to `CC[C@H](C)[C@H](NC(=O)[C@](C)(Cc1ccccc1)NC(=O)[C@H](CCC(=O)O)NC(=O)[C@H](CCCCN)NC(=O)[C@H](C)NC(=O)[C@H](C)NC(=O)[C@H](CCC(N)=O)NC(=O)CNC(=O)[C@H](CCC(=O)O)NC(=O)[C@H](CC(C)C)NC(=O)[C@H](Cc1ccc(O)cc1)NC(=O)[C@H](CO)NC(=O)[C@H](CO)NC(=O)[C@@H](NC(=O)[C@H](CC(=O)O)NC(=O)[C@H](CO)NC(=O)[C@@H](NC(=O)[C@H](Cc1ccccc1)NC(=O)[C@@H](NC(=O)CNC(=O)[C@H](CCC(=O)O)NC(=O)C(C)(C)NC(=O)[C@@H](N)Cc1c[nH]cn1)[C@@H](C)O)[C@@H](C)O)C(C)C)C(=O)N[C@@H](C)C(=O)N[C@@H](Cc1c[nH]c2ccccc12)C(=O)N[C@@H](CC(C)C)C(=O)N[C@H](C(=O)N[C@@H](CCCCN)C(=O)NCC(=O)N[C@@H](CCCNC(=N)N)C(N)=O)C(C)C` [SEQ ID NO: 11, H-(Aib)^2-EGT^5 FTSDV^10 SSYLE^15 GQAAK^20 E-(α-MeF)^22IAW^25 LVKGR^30], the EC50 on hGluc-R was 153 nM; at hGLP-1R, 0.0547 nM; on hGIP-R, 153 nM.
With `CC[C@H](C)[C@H](NC(=O)[C@H](Cc1ccccc1)NC(=O)[C@H](CCC(=O)O)NC(=O)[C@](C)(CCCCN)NC(=O)[C@H](C)NC(=O)[C@H](C)NC(=O)[C@H](CCC(N)=O)NC(=O)CNC(=O)[C@H](CCC(=O)O)NC(=O)[C@H](CC(C)C)NC(=O)[C@H](Cc1ccc(O)cc1)NC(=O)[C@H](CO)NC(=O)[C@H](CO)NC(=O)[C@@H](NC(=O)[C@H](CC(=O)O)NC(=O)[C@H](CO)NC(=O)[C@@H](NC(=O)[C@H](Cc1ccccc1)NC(=O)[C@@H](NC(=O)CNC(=O)[C@H](CCC(=O)O)NC(=O)C(C)(C)NC(=O)[C@@H](N)Cc1c[nH]cn1)[C@@H](C)O)[C@@H](C)O)C(C)C)C(=O)N[C@@H](C)C(=O)N[C@@H](Cc1c[nH]c2ccccc12)C(=O)N[C@@H](CC(C)C)C(=O)N[C@H](C(=O)N[C@@H](CCCCN)C(=O)NCC(=O)N[C@@H](CCCNC(=N)N)C(N)=O)C(C)C` [SEQ ID NO: 20, H-(Aib)^2-EGT^5 FTSDV^10 SSYLE^15 GQAA-(α-MeK)^20 EFIAW^25 LVKGR^30], the half-maximal effective concentration (EC50) on hGluc-R worked out at 110 nM; on hGLP-1R it was 0.0167 nM; on hGIP-R it was 110 nM.
On to `CC[C@H](C)[C@H](NC(=O)[C@H](Cc1ccccc1)NC(=O)[C@H](CCC(=O)O)NC(=O)[C@H](CCCCN)NC(=O)[C@H](C)NC(=O)[C@H](C)NC(=O)[C@H](CCC(N)=O)NC(=O)CNC(=O)[C@H](CCC(=O)O)NC(=O)[C@H](CC(C)C)NC(=O)[C@H](Cc1ccc(O)cc1)NC(=O)[C@H](CO)NC(=O)[C@H](CO)NC(=O)[C@@H](NC(=O)[C@H](CC(=O)O)NC(=O)[C@H](CO)NC(=O)[C@@H](NC(=O)[C@H](Cc1ccccc1)NC(=O)[C@@H](NC(=O)CNC(=O)[C@H](CCC(=O)O)NC(=O)C(C)(C)NC(=O)[C@@H](N)Cc1c[nH]cn1)[C@@H](C)O)[C@@H](C)O)C(C)C)C(=O)N[C@@H](C)C(=O)N[C@@H](Cc1c[nH]c2ccccc12)C(=O)N[C@@H](CC(C)C)C(=O)N[C@H](C(=O)N[C@@](C)(CCCCN)C(=O)NCC(=O)N[C@@H](CCCNC(=N)N)C(N)=O)C(C)C` [SEQ ID NO: 22, H-(Aib)^2-EGT^5 FTSDV^10 SSYLE^15 GQAAK^20 EFIAW^25 LV-(α-MeK)^28-GR^30], for which the concentration for a half-maximal effect (EC50) on hGluc-R came out at 91.4 nM; on hGLP-1R, 0.019 nM; on hGIP-R, 91.4 nM.
As to `CCCCCCCCCCCCCCCC(=O)N[C@@H](CCC(=O)NCCCC[C@H](NC(=O)[C@](C)(CCCNC(=N)N)NC(=O)CNC(=O)[C@](C)(CCCCN)NC(=O)[C@@H](NC(=O)[C@H](CC(C)C)NC(=O)[C@](C)(Cc1c[nH]c2ccccc12)NC(=O)[C@H](C)NC(=O)[C@@H](NC(=O)[C@](C)(Cc1ccccc1)NC(=O)[C@H](CCC(=O)O)NC(=O)[C@](C)(CCCCN)NC(=O)[C@H](C)NC(=O)[C@H](C)NC(=O)[C@H](CCC(N)=O)NC(=O)CNC(=O)[C@H](CCC(=O)O)NC(=O)[C@H](CC(C)C)NC(=O)[C@](C)(Cc1ccc(O)cc1)NC(=O)[C@H](CO)NC(=O)[C@H](CO)NC(=O)[C@@H](NC(=O)[C@H](CC(=O)O)NC(=O)[C@H](CO)NC(=O)[C@@H](NC(=O)[C@](C)(Cc1ccccc1)NC(=O)[C@H](CO)NC(=O)CNC(=O)[C@H](CCC(=O)O)NC(=O)C(C)(C)NC(=O)[C@@H](N)Cc1c[nH]cn1)[C@@H](C)O)C(C)C)[C@@H](C)CC)C(C)C)C(N)=O)C(=O)O` [SEQ ID NO: 58, H-(Aib)^2-EG-(S)^5-(α-MeF)^6-TSDV^10 SS-(α-MeY)^13-LE^15 GQAA-(α-MeK)^20 E-(α-MeF)^22-IA-(α-MeW)^25 LV-(α-MeK)^28-G-(α-MeR)^30-K(Ε-γ-E-Palm)], the results for the EC50 at hGluc-R, at hGLP-1R and on hGIP-R were 105 nM, 0.0848 nM and 105 nM, respectively.
